Entries after “also recorded” stand apart in the source; their conditions may differ.
Assays:
[1] = target: T1, purified recombinant mouse Nmnat (Mus musculus, UniProt Q9EPA7); test: enzyme-coupled fluorometric assay, kinetic parameters for Nmnat; type: biochemical; settings: substrate of Nmnat
T1 construct: the purified full-length His-tagged Nampt and Nmnat recombinant proteins; made in house; host or cells: E. coli BL21(DE3)pLysS
Procedure: (§1) Enzymatic activities of recombinant Nampt and Nmnat proteins were measured by an enzyme-coupled fluorometric assay (see e.g. FIG. 2A). In this enzyme-coupled reaction, NAD is converted to NADH by alcohol dehydrogenase, and the fluorescence of NADH is detected in a fluorometer. To establish this assay system, optimal reaction conditions for Nmnat were initially examined by varying ATP and Mg^2+ concentrations and pH of the reaction buffer. The resultant reaction buffer for Nmnat contained 50 mM HEPES [pH 7.4], 0.02% BSA, 12 mM MgCl2, 2 mM ATP, 1.5% ethanol, and 30 μg/ml alcohol dehydrogenase to convert NAD to NADH. To determine the kinetic parameters for Nmnat, 30 ng of purified His-tagged Nmnat and varying concentrations of NMN were added to 1 ml of the reaction buffer. The reactions were run at 37° C. and quenched at six time points by the addition of 250 μl of 0.5 M EDTA. The production of NADH was measured by excitation at 340 nm and emission at 460 nm in a fluorometer. […] NADH production was measured continuously in a fluorometer.

[2] = target: T2, purified recombinant mouse Nampt (Mus musculus, UniProt Q99KQ4); test: enzyme-coupled fluorometric assay, kinetic characterization of Nampt; type: biochemical; settings: substrate of Nampt
T2 construct: the purified full-length His-tagged Nampt and Nmnat recombinant proteins; made in house; host or cells: E. coli BL21(DE3)pLysS
Procedure: as §1

[3] = target: GAL4 DBD fused to the Sir2α catalytic core domain (GAL4 DBD-mCORE) (Mus musculus, UniProt Q923E4); settings: 5 mM, added 24 h after transfection, NIH3T3 cells
Procedure: A reporter gene transcription assay using a GAL4 DNA binding domain (GAL4 DBD) fusion system was developed to monitor the transcriptional regulatory activity of the mouse Sir2 ortholog, Sir2α. […] This assay system used the GAL4 DBD fused to the Sir2α catalytic core domain (GAL4 DBD-mCORE) and a luciferase reporter that has a thymidine kinase minimal promoter and four GAL4 binding sites.
For the luciferase assay, 1.2×10^5 NIH3T3 cells were plated in 6 cm dishes. 24 h after plating, cells were transfected for 3 h with 380 ng of pUAS4tk-luc as a reporter, 1.5 μg of pM or pM-GAL4 DBD-mCORE as an effector, and 38 ng of pRL-SV40 (Promega, Wis.) as a normalization control by using Superfect (Qiagen). Transfectants were harvested 48 h after transfection, and luciferase activity was measured with the Dual-Luciferase Reporter Assay System (Promega, Wis.) and a SIRIUS luminometer (Berthold Detection Systems, Germany) according to the manufacturers' protocols. Background luminescence was subtracted and was always less than 1% of measured values. Transfection efficiencies were normalized based on Renilla luciferase activities. […] To examine the effects of Nampt and Nmnat on the transcriptional repressive activity of GAL4 DBD-mCORE, NIH3T3 cells were co-transfected with indicated amounts of Nampt and Nmnat expression vectors along with reporter, effector and normalization control plasmids.

[4] = test system: NIH3T3 cells; test: total cellular NAD levels by HPLC in NIH3T3 cells; type: cell-based, mouse; settings: 5 mM added to the medium
Procedure: Total cellular levels of NAD was measured in the NIH3T3 cell lines overexpressing the untagged enzymes. High performance liquid chromatography was used to measure NAD (Neubert et al., Biochim. Biophys. Acta. (1964) 92, 610-612; Emanuelli et al., J. Chromatogr. (1996) B. 676, 13-18). Briefly, 5×10^5 cells were plated in 6 cm dishes and harvested 48 h later in 800 μl of ice-cold PBS. Cells were then spun down and lysed with 300 μl of 1 M HClO4 on ice for 10 min. Lysates were cleared by centrifugating at 4° C. at 18,000 g for 5 minutes. Cleared lysates (240 μl) were neutralized by adding 80 μl of 3M K2CO3 and incubating on ice for 10 minutes. After centrifuging for 10 min, 100 μl of the supernatant were mixed with 400 μl of Buffer A and loaded onto the column. The HPLC was run at a flow rate of 1 ml/min with 100% Buffer A from 0 to 5 min, a linear gradient to 95% Buffer A and 5% Buffer B (100% methanol) from 5 to 6 min, 95% Buffer A and 5% Buffer B from 6 to 11 min, a linear gradient to 85% Buffer A and 15% Buffer B from 11 to 13 min, 85% Buffer A and 15% Buffer B from 13 to 23 min, and a linear gradient to 100% Buffer A from 23 to 24 min. NAD was eluted as a sharp peak at 22 min. The amount of NAD was quantitated based on the peak area compared to a standard curve.

T1 sequence (Q9EPA7 whole entry): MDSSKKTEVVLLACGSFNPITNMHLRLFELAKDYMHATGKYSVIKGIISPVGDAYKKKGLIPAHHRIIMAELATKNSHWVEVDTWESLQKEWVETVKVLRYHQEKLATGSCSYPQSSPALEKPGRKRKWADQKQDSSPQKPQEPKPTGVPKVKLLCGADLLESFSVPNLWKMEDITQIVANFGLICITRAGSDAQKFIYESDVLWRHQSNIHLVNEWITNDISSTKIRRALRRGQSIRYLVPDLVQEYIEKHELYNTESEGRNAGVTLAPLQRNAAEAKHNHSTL
T2 sequence (Q99KQ4 whole entry): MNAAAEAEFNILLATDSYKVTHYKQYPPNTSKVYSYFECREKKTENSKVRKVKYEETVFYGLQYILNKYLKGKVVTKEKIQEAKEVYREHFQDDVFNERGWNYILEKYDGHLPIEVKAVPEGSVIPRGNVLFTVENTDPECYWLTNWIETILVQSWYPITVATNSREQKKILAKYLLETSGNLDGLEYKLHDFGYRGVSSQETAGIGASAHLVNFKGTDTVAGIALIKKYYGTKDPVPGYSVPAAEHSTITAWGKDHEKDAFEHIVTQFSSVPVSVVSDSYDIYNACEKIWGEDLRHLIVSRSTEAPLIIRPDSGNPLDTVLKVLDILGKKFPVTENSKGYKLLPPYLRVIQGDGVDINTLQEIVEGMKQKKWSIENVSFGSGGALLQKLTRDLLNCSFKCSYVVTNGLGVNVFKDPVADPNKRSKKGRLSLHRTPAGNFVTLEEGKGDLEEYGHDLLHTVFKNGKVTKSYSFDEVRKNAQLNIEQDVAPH
Sequence of GAL4 DBD fused to the Sir2α catalytic core domain (GAL4 DBD-mCORE) (Q923E4 with tags, fused parts or gaps): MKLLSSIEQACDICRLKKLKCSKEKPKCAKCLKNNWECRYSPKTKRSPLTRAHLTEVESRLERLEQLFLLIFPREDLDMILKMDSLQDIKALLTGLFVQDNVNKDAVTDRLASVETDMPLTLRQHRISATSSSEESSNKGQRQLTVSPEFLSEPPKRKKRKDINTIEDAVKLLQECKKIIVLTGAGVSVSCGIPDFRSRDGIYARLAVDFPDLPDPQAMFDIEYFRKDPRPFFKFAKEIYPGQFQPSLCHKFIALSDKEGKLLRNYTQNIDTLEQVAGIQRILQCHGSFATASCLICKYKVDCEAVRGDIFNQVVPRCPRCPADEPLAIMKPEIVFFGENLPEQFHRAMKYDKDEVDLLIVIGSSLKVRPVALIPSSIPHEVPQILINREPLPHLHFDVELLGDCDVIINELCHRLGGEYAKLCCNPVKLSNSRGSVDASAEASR

| Kcat [1] | Vmax [1] | Km ([1]; 37° C., pH 7.4) | Kcat [2] | Vmax [2] | effect on transcriptional repressive activity of GAL4 DBD-mCORE [3] | SMILES | effect on total cellular NAD [4] |
| --- | --- | --- | --- | --- | --- | --- | --- |
| 20.0 s⁻¹ | 34.1 µmol/min/mg | 20.1 µM |  |  |  | NC(=O)c1ccc[n+]([C@@H]2O[C@H](COP(=O)([O-])O)[C@@H](O)[C@H]2O)c1 [NMN, nicotinamide mononucleotide] |  |
|  |  |  | 0.020 s⁻¹ | 0.021 µmol/min/mg | abolished | NC(=O)c1cccnc1 [Nicotinamide, 3-pyridinecarboxamide] | did not increase NAD; also recorded: unable to increase NAD |
|  |  |  |  |  | not | O=C(O)c1cccnc1 [nicotinic acid] |  |
